# Experimental data as given in patent publication US9790169B2, “IDO inhibitors” (BRISTOL-MYERS SQUIBB COMPANY, priority 2015, dated 2017).
# Target: human IDO1 (Homo sapiens, UniProt P14902)
# Experiment: Assessment of human IDO-1 inhibitory activity in HEK cells (human IDO1/HEK293 cells, kynurenine read-out with Ehrlich reagent, absorbance 490 nm)
# Assay type: cell-based
# Set-up: expressed in transfected cells
# Conditions: HEK Human IDO-1 cellular assay
# Summary of the method: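 Kynurenine output from stably IDO1-transfected HEK293 cells (10,000/well, phenol red-free RPMI, 10% FBS) after 20 h compound exposure at 37 °C. The reaction was stopped with 0.2% TCA and heated 30 min at 50 °C, then the supernatant was mixed with Ehrlich reagent and read at 490 nm. IC50 was set against DMSO and a 500 nM reference standard as 0 and 100% inhibition.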
# human IDO1, sequence (P14902 whole entry): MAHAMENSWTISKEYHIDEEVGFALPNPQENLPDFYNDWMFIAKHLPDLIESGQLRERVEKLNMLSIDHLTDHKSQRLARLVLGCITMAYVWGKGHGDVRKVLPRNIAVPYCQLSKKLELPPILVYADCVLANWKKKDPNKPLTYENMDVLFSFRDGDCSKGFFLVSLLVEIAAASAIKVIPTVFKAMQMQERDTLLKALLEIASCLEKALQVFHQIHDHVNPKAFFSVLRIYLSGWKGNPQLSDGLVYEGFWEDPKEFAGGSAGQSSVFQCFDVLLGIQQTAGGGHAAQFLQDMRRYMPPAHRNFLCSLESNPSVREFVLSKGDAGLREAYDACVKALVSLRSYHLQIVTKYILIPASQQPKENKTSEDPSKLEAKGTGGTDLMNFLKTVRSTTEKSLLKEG
row,IC50 [µM],SMILES
1,< 0.005,"CCCOc1ncc(Nc2cc(C(CC)CC(=O)O)ccc2N(CC(C)C)C2CCCCC2)cn1 (single isomer, unassigned) [Example 647, 3-(4-(cyclohexyl(isobutyl)amino)-3-((2-propoxypyrimidin-5-yl)amino)phenyl)pentanoic acid]"
2,< 0.05,"CCc1cnc(Nc2cc([C@@H](CC)CC(=O)O)ccc2N(CC(C)(C)O)C2CCCCC2)nc1 (single isomer, unassigned) [Example 230]"
3,< 0.005,"Cc1ccc(CC(=O)Nc2cc(C(CC(=O)O)C3CC3)ccc2N(CC(C)C)C2CCCCC2)cc1 (single isomer, unassigned) [Example 1247, 3-(4-(Cyclohexyl(isobutyl)amino)-3-(2-(p-tolyl)acetamido)phenyl)-3-cyclopropylpropanoic acid]"
4,< 0.05,"CCC(CC(=O)O)c1ccc(N(CC(C)C)C2CCCCC2)c(Nc2ccc3c(c2)OCCO3)c1 (single isomer, unassigned) [Example 301, 3-(4-(cyclohexyl(isobutyl)amino)-3-((2,3-dihydrobenzo[b][1,4]dioxin-6-yl)amino)phenyl) pentanoic acid]"
5,> 0.05,"COCC(CC(=O)O)c1cc(F)c(N(CC(C)C)CC(C)C)c(NC(=O)Nc2cncnc2)c1 (single isomer, unassigned) [Example 1196, 3-(4-(Diisobutylamino)-3-fluoro-5-(3-(pyrimidin-5-yl)ureido)phenyl)-4-methoxybutanoic acid]"
6,< 0.05,"CCOc1ccc(CC(=O)Nc2cc(C(COC)CC(=O)O)cc(F)c2N(CC(C)C)C2CCCCC2)cc1 (single isomer, unassigned) [Example 1168, 3-(4-(cyclohexyl(isobutyl)amino)-3-(2-(4-ethoxyphenyl)acetamido)-5-fluorophenyl)-4-methoxybutanoic acid]"
7,> 0.05,"CCC(CC(=O)O)c1ccc(N2CCC[C@@H]2COC)c(NC(=O)Cc2ccc(C)cc2)c1 (mixture of isomers) [Example 1143, (±)-3-(4-((R)-2-(Methoxymethyl)pyrrolidin-1-yl)-3-(2-(p-tolyl)acetamido)phenyl)pentanoic acid]"
8,< 0.05,"CCOc1ncc(Nc2cc([C@@H](CC)CC(=O)O)ccc2N(CC)C2CCCCC2)cn1 (single isomer, unassigned) [Example 281]"
9,< 0.05,"CCN(c1ccc(C(C)CC(=O)O)cc1Nc1cnc(OC)nc1)C1CCOCC1 (single isomer, unassigned) [Example 633, 3-(4-(ethyl(tetrahydro-2H-pyran-4-yl)amino)-3-((2-methoxypyrimidin-5-yl)amino)phenyl)butanoic acid]"
10,< 0.005,"CCOc1ccc(NC(=O)Nc2cc(C(CC)CC(=O)O)c(F)cc2N(CC(C)C)CC(C)C)cc1 (racemic) [Example 1131, (±)-3-(4-(Diisobutylamino)-5-(3-(4-ethoxyphenyl)ureido)-2-fluorophenyl)pentanoic acid]"
11,> 0.05,"CCC(CC(=O)O)c1cc(F)c(N(CC(C)C)CC(C)C)c(Nc2ccc3nc(C)sc3c2)c1 (single isomer, unassigned) [Example 95, 3-(4-(Diisobutylamino)-3-fluoro-5-((2-methylbenzo[d]thiazol-6-yl)amino)phenyl)pentanoic acid]"
12,< 0.005,Cc1ccc(CC(=O)Nc2cc(C(CC(=O)O)C(C)C)ccc2N(CC(C)C)CC(C)C)cc1 (racemic) [Example 1010]
13,> 0.05,"CC[C@H](CC(=O)O)c1ccc(N2CCOC[C@@H]2C(C)C)c(NC(=O)Nc2ccc(C)cc2)c1 (single isomer, unassigned) [Example 85]"
14,< 0.005,"CCC(CC(=O)O)c1ccc(N(CC2CC2)C2CCOCC2)c(Nc2ccc(Cl)cc2)c1 (single isomer, unassigned) [Example 702, 3-(3-((4-chlorophenyl)amino)-4-((cyclopropylmethyl) (tetrahydro-2H-pyran-4-yl)amino)phenyl)pentanoic acid]"

row,SMILES,IC50 [µM]
1,"CCC(CC(=O)O)c1cc(F)c(N(CC(C)C)CC(C)C)c(NC(=O)Nc2ccc(C#N)c(Cl)c2)c1 (racemic) [Example 978, (+/−)-3-(3-(3-(3-chloro-4-cyanophenyl)ureido)-4-(diisobutylamino)-5-fluorophenyl)pentanoic acid]",< 0.05
